Assay results reported in US8357703B2, “Pyridines” (Hoffmann-La Roche Inc., priority 2009, dated 2013).

target: T1, human GABA A α5β3γ2 receptor (Homo sapiens, UniProt P18507+P31644); assay: [3H]flumazenil competition binding to HEK293 cells expressing human GABA A receptors; conditions: competition for [3H]flumazenil (0.5 nM for α5); HEK293 cells expressing human (transiently transfected) receptors; means of two determinations; read-out: hKi GABA Aα5
T1 construct: expressed in transfected cells; host or cells: HEK293 (transiently transfected), membranes
Procedure: The affinity of compounds at GABA A receptor subtypes was measured by competition for [^3H]flumazenil (85 Ci/mmol; Roche) binding to HEK293 cells expressing rat (stably transfected) or human (transiently transfected) receptors of composition α1β3γ2, α2β3γ2, α3β3γ2 and α5β3γ2.
Cell pellets were suspended in Krebs-tris buffer (4.8 mM KCl, 1.2 mM CaCl2, 1.2 mM MgCl2, 120 mM NaCl, 15 mM Tris; pH 7.5; binding assay buffer), homogenized by polytron for ca. 20 sec on ice and centrifuged for 60 min at 4° C. (50000 g; Sorvall, rotor: SM24=20000 rpm). The cell pellets were resuspended in Krebs-tris buffer and homogenized by polytron for ca. 15 sec on ice. Protein was measured (Bradford method, Bio-Rad) and aliquots of 1 mL were prepared and stored at −80° C.
Radioligand binding assays were carried out in a volume of […] (96-well plates) which contained […] of cell membranes, [^3H]flumazenil at a concentration of 1 nM for α1, α2, α3 subunits and 0.5 nM for α5 subunits and the test compound in the range of […]. Nonspecific binding was defined by 10^−5 M diazepam and typically represented less than 5% of the total binding. Assays were incubated to equilibrium for 1 hour at 4° C. and harvested onto GF/C uni-filters (Packard) by filtration using a Packard harvester and washing with ice-cold wash buffer (50 mM Tris; pH 7.5). After drying, filter-retained radioactivity was detected by liquid scintillation counting. Ki values were calculated using Excel-Fit (Microsoft) and are the means of two determinations.
Representative test results, obtained by the above described assay measuring binding affinity to HEK293 cells expressing human (h) receptors, are shown in table 1 below.

Row | Ki | SMILES
1 | 3.8 nM | CCCCc1noc(C)c1COc1ccc(C(=O)N[C@@H](C)CO)cn1 [Example 12, (−)-6-((3-Butyl-5-methyl-isoxazol-4-yl)methoxy)-N-(2-hydroxy-1-methyl-ethyl)-nicotinamide]
2 | 8.4 nM | CCCCc1noc(C)c1COc1ccc(C(=O)N[C@@H](C)C(F)(F)F)cn1 [Example 19, 6-((3-Butyl-5-methyl-isoxazol-4-yl)methoxy)-N—((S)-2,2,2-trifluoro-1-methyl-ethyl)-nicotinamide]
3 | 5 nM | CCCCc1noc(C)c1COc1ccc(C(=O)NC2CCOC2)cn1 (stereo not drawn) [Example 14, 6-((3-Butyl-5-methyl-isoxazol-4-yl)methoxy)-N-(tetrahydro-furan-3-yl)-nicotinamide]
4 | 6.5 nM | CCCCc1noc(C)c1COc1ccc(C(=O)NC2CC2)cn1 [Example 6, 6-((3-Butyl-5-methyl-isoxazol-4-yl)methoxy)-N-cyclopropyl-nicotinamide]
5 | 5.7 nM | CCCCc1noc(C)c1COc1ccc(C(=O)NCCO)cn1 [Example 10, 6-((3-Butyl-5-methyl-isoxazol-4-yl)methoxy)-N-(2-hydroxy-ethyl)-nicotinamide]
6 | 5.2 nM | Cc1onc(C2CCCCC2)c1COc1ccc(C(=O)NC2CCOCC2)cn1 [Example 33, 6-((3-Cyclohexyl-5-methyl-isoxazol-4-yl)methoxy)-N-(tetrahydro-pyran-4-yl)-nicotinamide]
7 | 5.2 nM | CCCCc1noc(C)c1COc1ccc(C(=O)NCC(C)O)cn1 (stereo not drawn) [Example 17, 6-((3-Butyl-5-methyl-isoxazol-4-yl)methoxy)-N-(2-hydroxy-propyl)-nicotinamide]
8 | 41.6 nM | Cc1onc(C2CCOCC2)c1COc1ccc(C(=O)N[C@@H](C)CO)cn1 [Example 38, N—((S)-2-Hydroxy-1-methyl-ethyl)-6-[(5-methyl-3-(tetrahydro-pyran-4-yl)-isoxazol-4-yl)methoxy]-nicotinamide]
9 | 6.5 nM | CCCCc1noc(C)c1COc1ccc(C(=O)N[C@H]2CCOC2)cn1 [Example 16, 6-((3-Butyl-5-methyl-isoxazol-4-yl)methoxy)-N-(S)-tetrahydro-furan-3-yl-nicotinamide]
10 | 15.2 nM | CCCCc1noc(C)c1COc1ccc(C(=O)NC(C)(C)CO)cn1 [Example 8, 6-((3-Butyl-5-methyl-isoxazol-4-yl)methoxy)-N-(2-hydroxy-1,1-dimethyl-ethyl)-nicotinamide]
11 | 11.5 nM | CCCCc1noc(C)c1COc1ccc(C(=O)NC2(C)CC2)cn1 [Example 21, 6-((3-Butyl-5-methyl-isoxazol-4-yl)methoxy)-N-(1-methyl-cyclopropyl)-nicotinamide]
12 | 5.7 nM | CCCCc1noc(C)c1COc1ccc(C(=O)NC(CO)CO)cn1 [Example 15, 6-((3-Butyl-5-methyl-isoxazol-4-yl)methoxy)-N-(2-hydroxy-1-hydroxymethyl-ethyl)-nicotinamide]
13 | 49 nM | Cc1onc(CCC(F)(F)F)c1COc1ccc(C(=O)NC(C)C)cn1 [Example 3, N-Isopropyl-6-[(5-methyl-3-(3,3,3-trifluoro-propyl)-isoxazol-4-yl)methoxy]-nicotinamide]

The remaining lines, values behind:

Row | SMILES | Ki
14 | CCCCc1noc(C)c1CNc1ccc(C(=O)NC(C)C)cn1 [Example 42, 6-[((3-Butyl-5-methyl-isoxazol-4-yl)methyl)-amino]-N-isopropyl-nicotinamide] | 57.9 nM
15 | CCCCc1noc(C)c1COc1ccc(C(=O)Nc2cnn(C)c2)cn1 [Example 23, 6-((3-Butyl-5-methyl-isoxazol-4-yl)methoxy)-N-(1-methyl-1H-pyrazol-4-yl)-nicotinamide] | 2.2 nM
16 | CCCCc1noc(C)c1COc1ccc(C(=O)N2CCS(=O)(=O)CC2)cn1 [Example 18, [6-((3-Butyl-5-methyl-isoxazol-4-yl)methoxy)-pyridin-3-yl]-(1,1-dioxo-1,6-thiomorpholin-4-yl)-methanone] | 21.1 nM
17 | Cc1onc(OCC(C)C)c1COc1ccc(C(=O)NC(C)C)cn1 [Example 39, 6-((3-Isobutoxy-5-methyl-isoxazol-4-yl)methoxy)-N-isopropyl-nicotinamide] | 4.7 nM
18 | CCCc1noc(C)c1COc1ccc(C(=O)NC(C)C)cn1 [Example 1, N-Isopropyl-6-((5-methyl-3-propyl-isoxazol-4-yl)methoxy)-nicotinamide] | 46 nM
19 | Cc1onc(CCC(F)(F)F)c1COc1ccc(C(=O)NC2CCOCC2)cn1 [Example 4, 6-[(5-Methyl-3-(3,3,3-trifluoro-propyl)-isoxazol-4-yl)methoxy]-N-(tetrahydro-pyran-4-yl)-nicotinamide] | 39.9 nM
20 | CCCCc1noc(C)c1COc1ccc(C(=O)NC(C)CO)cn1 (racemic) [Example 9, Rac-6-((3-Butyl-5-methyl-isoxazol-4-yl)methoxy)-N-(2-hydroxy-1-methyl-ethyl)-nicotinamide] | 3.1 nM
21 | CCCCc1noc(C)c1COc1ccc(C(=O)Nc2ccn(C)n2)cn1 [Example 24, 6-((3-Butyl-5-methyl-isoxazol-4-yl)methoxy)-N-(1-methyl-1H-pyrazol-3-yl)-nicotinamide] | 10.7 nM
22 | CCCCc1noc(C)c1COc1ccc(C(=O)NC2CCOCC2)cn1 [Example 7, 6-((3-Butyl-5-methyl-isoxazol-4-yl)methoxy)-N-(tetrahydro-pyran-4-yl)-nicotinamide] | 5.2 nM
23 | CCCCc1noc(C)c1COc1ccc(C(=O)N[C@@H](C)C(F)(F)F)cn1 [Example 20, 6-((3-Butyl-5-methyl-isoxazol-4-yl)methoxy)-N—((S)-2,2,2-trifluoro-1-methyl-ethyl)-nicotinamide] | 7.5 nM
24 | Cc1onc(C2CCCCC2)c1COc1ccc(C(=O)NC(C)(C)CO)cn1 [Example 35, 6-((3-Cyclohexyl-5-methyl-isoxazol-4-yl)methoxy)-N-(2-hydroxy-1,1-dimethyl-ethyl)-nicotinamide] | 20.3 nM
25 | CCCCc1nocc1COc1ccc(C(=O)NC2CCOCC2)cn1 [Example 27, 6-((3-Butyl-isoxazol-4-yl)methoxy)-N-(tetrahydro-pyran-4-yl)-nicotinamide] | 51.9 nM
26 | Cc1onc(N2CCCC2)c1COc1ccc(C(=O)NC2CCOCC2)cn1 [Example 41, 6-((5-methyl-3-pyrrolidin-1-yl-isoxazol-4-yl)methoxy)-N-(tetrahydro-pyran-4-yl)-nicotinamide] | 3.9 nM
27 | CCCCc1nocc1COc1ccc(C(=O)NC(C)C)cn1 [Example 25, 6-((3-Butyl-isoxazol-4-yl)methoxy)-N-isopropyl-nicotinamide] | 41.1 nM
